From ChEMBL document CHEMBL5321281, “Synthesis and Biological Evaluation of Heterocyclic Ring-Fused 20(S)-Protopanaxadiol Derivatives as Potent Antiosteoporosis Agents” (J Med Chem, 2023)
Activity calls are given as the source filed them. The calls are words filed in the database; no cut-off is given here.

Key:
[1] = system: Mus musculus; test: Protective effect in ovariectomy induced osteoporosis C57BL/6 mouse model assessed as inhibition of OVX-induced osteoclast activity by analysing osteoclast area in proximal femur at 3 mg/kg, ip and measured after 6 weeks by H and E staining based microscopic analysis; type: functional, organism-based
[2] = Apparent volume of distribution in ICR mouse at 1 mg/kg, iv and measured upto 24 hrs by LC-MS/MS analysis; type: ADME, organism-based; conditions: in vivo, read-out: Vz
[3] = Half life in ICR mouse at 1 mg/kg, iv and measured upto 24 hrs by LC-MS/MS analysis; type: ADME, organism-based; conditions: in vivo
[4] = Tmax in ICR mouse at 10 mg/kg, po and measured upto 24 hrs by LC-MS/MS analysis; type: ADME, organism-based; conditions: in vivo
[5] = AUC (0 to infinity) in ICR mouse at 10 mg/kg, po and measured upto 24 hrs by LC-MS/MS analysis; type: ADME, organism-based; design: dose 10 mg/kg, time < 24 hrs, route po; conditions: in vivo
[6] = Half life in ICR mouse at 10 mg/kg, po and measured upto 24 hrs by LC-MS/MS analysis; type: ADME, organism-based; conditions: in vivo
[7] = system: BMMC; test: Anti-osteoclastogenic activity in C57/BL6 mouse BMMC cells assessed as inhibition of RANKL-induced osteoclast differentiation by measuring number of TRAP-positive multinucleated cells at 0.01 to 5 uM incubated for 5 to 7 days in presence of M-CSF by TRAP staining based microscopic analysis relative to control; type: functional, cell-based; conditions: dose 0.01-5 µM, time 5-7 day
[8] = system: BMMC; test: Anti-osteoclastogenic activity in C57/BL6 mouse BMMC cells assessed as reduction in RANKL-induced CTSK mRNA expression level at 0.1 uM incubated for 1 to 5 days in presence of M-CSF by qRT-PCR analysis; type: functional, cell-based; conditions: time 1-5 day, TDE = time-dependent effect
[9] = system: BMMC; test: Anti-osteoclastogenic activity in C57/BL6 mouse BMMC cells assessed as reduction in RANKL-induced MMP-9 mRNA expression level at 0.1 uM incubated for 1 to 5 days in presence of M-CSF by qRT-PCR analysis; type: functional, cell-based; conditions: time 1-5 day, TDE = time-dependent effect
[10] = system: BMMC; test: Anti-osteoclastogenic activity in C57/BL6 mouse BMMC cells assessed as reduction in RANKL-induced TRAP protein expression level at 0.1 uM incubated for 1 to 3 days in presence of M-CSF by Western blot anlaysis; type: functional, cell-based; conditions: time 1-3 day
[11] = Toxicity in ovariectomy induced osteoporosis C57BL/6 mouse model assessed as body weight change at 1 to 3 mg/kg, ip and measured for 6 weeks; type: organism-based; conditions: in vivo, 1008 h, dose 1-3 mg/kg

C=C(CCC=C(C)C)[C@H]1CC[C@]2(C)[C@@H]1[C@H](O)C[C@@H]1[C@@]3(C)Cc4cnc(C)nc4C(C)(C)[C@@H]3CC[C@]12C
inhibition [1]: Active | Vd [2]: 0.413 L/kg | half-life [3]: 0.336 h | Tmax [4]: 1 h | AUC(0-inf) [5]: 1230 ng·h/mL | half-life [6]: 1.03 h | inhibition [7]: Dose-Dependent Effect | Activity [8]: Tde | Activity [9]: Tde | Activity [10]: Active | Activity [11]: Non-Toxic
